Values joined by “and” are separate entries in the source; they are usually repeats but may differ in a detail not shown here. Equal values may be shown once. Read-outs that look alike come from different tables or passages of the source.

Data on four compounds can be found in publication PMC6662551 (Clinical and Translational Science, 2019).

The format of data set [1] is in vivo, human. The conditions noted are these: for AUClast: 0.25-12 hour; for C0: plasma.
Data set [2] concerns OATP1B1. It counts as in vivo, human. As to conditions: human, plasma, oral; for AUC(0-t): AUClast, 0.25-12 hour; for C0: C0, plasma, baseline.
Data set [3] has as its system OATP1B1. As to conditions: c.521T>C carriers; cited from earlier work.
The subject of data set [4] is 3‐hydroxy‐3‐methylglutaryl coenzyme A reductase. As to conditions: relative to pravastatin; cited from earlier work.
For data set [5] the following is noted: named peak only.
[6] abbreviates: pravastatin + cyclosporine, all genotype (N = 16).
Setting [7] is: pravastatin + placebo, TT (N = 8).
The mark [8] stands for this setting: pravastatin + placebo, all genotype (N = 16).
The mark [9] stands for this setting: pravastatin + cyclosporine, CC (N = 2).
Where [10] appears, read: pravastatin + cyclosporine, TC (N = 6).
[11] abbreviates: pravastatin + cyclosporine, TT (N = 8).
[12] abbreviates: pravastatin + placebo, CC (N = 2).
[13] abbreviates: pravastatin + placebo, TC (N = 6).

What is called Cmax is the peak of the concentration-time curve. The AUC(0-t) is the area under the concentration-time curve up to a stated or last time point. With `O=C(O)CCCCCCCCCCCCC(=O)O` [TDA, tetradecanedioic acid], the values for the AUClast in data set [1] (setting [6]), in data set [1] (setting [7]) and in data set [1] (setting [8]) were 0.902 ± 0.378 µM·h, 0.448 ± 0.153 µM·h and 0.593 ± 0.489 µM·h, respectively. Besides, the “C0 fold increase, pravastatin plus CsA over pravastatin plus placebo” value in data set [1] (CC) came out at 0.7 fold; in data set [1] (TC), 1.4 fold; in data set [1] (TT) it was 2.1 fold. For the same compound, the “AUClast fold increase, pravastatin plus CsA over pravastatin plus placebo” value is 0.9 fold in data set [1] (CC (N = 2)), 1.7 fold in data set [1] (TC (N = 6)) and 2.2 fold in data set [1] (TT (N = 8)). The “Cavg fold increase, pravastatin plus CsA over pravastatin plus placebo” value in data set [1] (CC (N = 2)) came out at 0.9 fold; in data set [1] (TC (N = 6)), 1.8 fold; in data set [1] (TT (N = 8)), 2.5 fold; in data set [1] (all genotype), 2.0 fold. For the same compound, the “Cmax fold increase, pravastatin plus CsA over pravastatin plus placebo” value in data set [1] (all genotype (N = 16)) is 2.2 fold. Further, the “ratio of mean AUC in SLCO1B1 c.521‐CC to c.521TT” value in data set [1] (endogenous biomarker) is recorded as 4.0 fold. The C0 in data set [1] (12 hours after first CsA dose, pravastatin + cyclosporine, all genotype) came out at 68 ± 26 nM; in data set [1] (baseline, pravastatin + placebo, all genotype) it was 55 ± 44 nM; in the data set on OATP1B1 [2] (pravastatin + placebo, CC) it was 131 ± 48.9 nM; in the data set on OATP1B1 [2] (pravastatin + placebo, TC), 31.3 ± 5 nM; with OATP1B1 [2] (pravastatin + placebo, TT), 44 ± 24.5 nM. Besides, the Cmax in data set [1] (pravastatin + cyclosporine (N = 16)) is 149 ± 71 nM; in data set [1] (pravastatin + placebo (N = 16)), 94.7 ± 118 nM. Besides, the Cavg in data set [1] (setting [9]) stood at 144 ± 13.9 nM; in data set [1] (setting [10]), 64.5 ± 26.4 nM; in data set [1] (setting [11]) it was 87.6 ± 29.5 nM; in data set [1] (setting [6]), 86.0 ± 35.8 nM; in data set [1] (setting [12]), 171 ± 53.7 nM; in data set [1] (setting [13]), 34.6 ± 10.4 nM. Further, the Cavg in data set [1] (setting [7]) is 38 ± 13.7 nM; in data set [1] (setting [8]) it was 53.3 ± 49.3 nM and 53.3 ± 49.3****^, ^b nM. For the same compound, in data set [1] (pravastatin plus placebo, individuals homozygous c.521‐CC), the “increase in plasma concentration, Cmax over baseline” value was “at least twofold”. Further, the “time of peak plasma level” value in data set [1] (two individuals c.521‐CC) is “around 3 hours and 3.0 hours”. Also, the exposure AUC(0-t) in the data set on OATP1B1 [2] (setting [9]) turned out to be 1.55 µM·h; in the data set with OATP1B1 [2] (setting [10]), 0.652 ± 0.246 µM·h; in the data set with OATP1B1 [2] (setting [11]), 0.927 ± 0.282 µM·h; in the data set with OATP1B1 [2] (setting [12]), 1.8 µM·h; in the data set on OATP1B1 [2] (setting [13]), 0.386 ± 0.084 µM·h.
For `CC(C)c1nc(N(C)S(C)(=O)=O)nc(-c2ccc(F)cc2)c1/C=C/[C@@H](O)C[C@@H](O)CC(=O)O` [rosuvastatin], the “increase in plasma levels in individuals with the OATP1B1‐Val174Ala variant” value in the data set on OATP1B1 [3] was 1.5–3 fold.
As for 3′α‐hydroxy‐pravastatin, the “inhibitory activity relative to the parent compound” value in data set [4] is given as “one‐tenth to one‐fortieth”. In addition, the “ratio of mean AUC0→12 in SLCO1B1 c.521CC and c.521TT” value in data set [5] was 1.2 fold.
For the compound `CCOc1cc(CC(=O)N[C@@H](CC(C)C)c2ccccc2N2CCCCC2)ccc1C(=O)O` [repaglinide], in the data set with OATP1B1 [3], the “increase in plasma levels in individuals with the OATP1B1‐Val174Ala variant” value is 1.5–3 fold.
